Patent US5804555A, “Antioxidant” (Morinaga Milk Industry Co., Ltd., priority 1992, dated 1998)

Key:
[1] = Test 2: inducing period of linoleic acid oxidation (days until absorbance of 0.2 is exceeded); type: biochemical; conditions: single addition, final concentration 0.1% in linoleic acid
Procedure: The following 11 kinds of sample were prepared.
Sample 2: A sample prepared by adding a hydrolysate of lactoferrin (prepared by the same method as in the Example 2) to linoleic acid to achieve a final concentration of 0.1%;
Sample 3: A sample prepared by adding peptides (prepared by the same method as in the Example 3) to linoleic acid to achieve a final concentration of 0.1%;
Sample 4: A sample prepared by adding vitamin E (dl-α tocopherol the same one as in the Test 1) to linoleic acid to achieve a final concentration of 0.1%;
Sample 5: A sample prepared by adding superoxide dismutase (manufactured by Sigma Company) to linoleic acid to achieve a final concentration of 0.1%;
Sample 6: A sample prepared by adding β-carotene (manufactured by Nakaraitesk Company) to linoleic acid to achieve a final concentration of 0.1%;
Sample 7: A sample prepared by adding vitamin C (manufactured by Nakaraitesk Company) to linoleic acid to achieve a final concentration of 0.1%; […]
Absorbance was measured by the same method as in the Test 1, and with the number of days until an absorbance of 0.2 is exceeded as the inducing period, antioxidant effect was tested.

[2] = Test 1: antioxidant effect on linoleic acid, peroxides by ferric thiocyanate method; type: biochemical; conditions: 0.2% added to linoleic acid, 60° C.
Procedure: A sample was prepared by adding dl-α tocopherol (manufactured by Wako Jun-yaku Kogyo Company), bovine lactoferrin (manufactured by Sigma Company), hydrolysate of lactoferrin (prepared by the same method as in the Example 2), or peptide (prepared by the same method as in the Example 3) to a final concentration of 0.2% (weight percentage; same applies hereafter except for the degree of decomposition) to commercially available linoleic acid (manufactured by Wako Jun-Yaku Kogyo Company) containing no additive. Hereafter, the thus prepared samples are individually referred to as […].
Antioxidant effect of the individual samples was tested by the method of Mitsuda et al.(Eiyo to Shokuryo, Vol. 19, p. 210, 1966) described below.
The above-mentioned samples were added to a mixed solution containing 10 ml of ethanol, 10 ml of 0.1M phosphate buffer solution (pH: 7.0), and 5 ml of deionized water so as to achieve a final concentration of linoleic acid of […](mol/l). This solution was placed in a vial bottle having a capacity of 50 ml, and the closely plugged bottle was held in an incubator at 60° C. The total volume was always adjusted to 25 ml by reducing the above-mentioned ionized water, depending upon the quantity of added sample. At prescribed time intervals, 0.1 ml was sampled from this vial bottle to measure the quantity of peroxides by the following ferric thiocyanate method.
To the sample solution in an amount of 0.1 ml, 4.7 ml of 75% ethanol, 0.1 ml of 30% ammonium rhodanide, and 0.1 ml of 3.5% hydrochloric acid solution of 2×10^-2 M ferrous chloride were added, and absorbance at 500 nm was measured upon the lapse of just three minutes.

For `CC1=C(/C=C/C(C)=C/C=C/C(C)=C/C=C/C=C(C)/C=C/C=C(C)/C=C/C2=C(C)CCCC2(C)C)C(C)(C)CCC1` [β-carotene], the Inducing period [1] was 14 days.
Compound `O=C1O[C@H]([C@@H](O)CO)C(O)=C1O` [Vitamin C, ascorbic acid] has an Inducing period [1] of 8 days.
In the case of `Cc1c(C)c2c(c(C)c1O)CCC(C)(CCCC(C)CCCC(C)CCCC(C)C)O2` (racemic) [Sample 2, dl-α tocopherol], the “Degree of peroxidation (absorbance at 500 nm)” value (“Degree of peroxidation” below) ([2]; period of preservation 0 days) is reported as 0, the “Degree of peroxidation” value ([2]; period of preservation 3 days) is reported as 0.19 and the “Degree of peroxidation” value ([2]; period of preservation 6 days) is reported as 0.16. For the same compound, the “Degree of peroxidation” value ([2]; period of preservation 10 days) was 0.16, the “Degree of peroxidation” value ([2]; period of preservation 13 days) was 0.21 and the Inducing period [1] was 8 days.
Superoxide dismutase gave an Inducing period [1] of 10 days.
